≈ marks a conversion by molar mass, not a printed value. Read-outs that look alike come from different tables or passages of the source.
Columns and labels:
[1] = test system: MRSA ATCC 43300; assay: MIC/MBC by broth micro dilution; type: cell-based, methicillin-resistant S. aureus; conditions: for MIC: 37 °C, 24 h; for MBC: lowest concentration reducing viable counts by 99.9%
Description: (§1) All the synthesised 1,2,3-triazole linked pleuromutilin analogues were screened for in vitro antibacterial activities against methicillin-resistant S. aureus (ATCC 43300), S. aureus (ATCC 29213), and two clinical strains of S. aureus (AD3 and 144, isolated from Guangdong Province, China). The MICs and MBCs of the synthesised pleuromutilin derivatives along with pleuromutilin and tiamulin used as the reference antibacterial drugs, were determined by the broth micro dilution methods according to the Clinical and Laboratory Standards Institute (CLSI)[18].
(§2) The MIC of these novel pleuromutilin derivatives against methicillin-resistant S. aureus (ATCC 43300), S. aureus (ATCC 29213), S. aureus (AD3) and S. aureus (144) were determined by using pleuromutilin and tiamulin as positive control. MIC values were determined by the broth micro dilution methods in accordance with the Clinical and Laboratory Standards Institute (2012). Stock solutions of these compounds were dissolved in methanol to make a stock solution with a concentration of 1280 µg/mL. The working solutions (640 µg/mL) were obtained by diluting stock solutions in sterile Mueller-Hinton (MH) broth. The bacterial solution and solutions of these compounds with a final concentration of 0.016–32 µg/mL were distributed into 96-well plates, with a total volume of 200 µL. Three parallel experiments for each compound concentration. The plates were incubated at 37 °C for 24 h.
(§3) MBC values were determined according to CLSI (2003) and previously report with slightly modification[18]^,[28]^,[31]. After obtaining the MIC results, the 96-well plates were incubated at 37 °C for 24 h. 100 µL of the bacterial solution from the wells with no visible growth was inoculated on MH agar plates. The MH agar plates were incubated at 37 °C for colony count. The MBC was determined as the lowest concentration of compound, which reduces the viable counts for 99.9%.

[2] = test system: S. aureus 144; assay: MIC/MBC by broth micro dilution; type: cell-based; conditions: Staphylococcus aureus, S. aureus 144 (clinical strain); for MIC: 37 °C, 24 h; for MBC: lowest concentration reducing viable counts by 99.9%
Description: as §1, §2, §3

[3] = test system: S. aureus AD3; assay: MIC/MBC by broth micro dilution; type: cell-based; conditions: Staphylococcus aureus, S. aureus AD3 (clinical strain); for MIC: 37 °C, 24 h; for MBC: lowest concentration reducing viable counts by 99.9%
Description: as §1, §2, §3

[4] = test system: S. aureus ATCC 29213; assay: MIC/MBC by broth micro dilution; type: cell-based; conditions: Staphylococcus aureus; for MIC: ATCC29213, 37 °C, 24 h; for MBC: ATCC29213, lowest concentration reducing viable counts by 99.9%
Description: as §1, §2, §3

[5] = test system: MRSA ATCC 43300; assay: Constant concentration time-kill curves; type: cell-based, methicillin-resistant S. aureus; conditions: for time-kill kinetics result: 8 × MIC, cultured for 24 h; for concentration giving a bactericidal effect: time-kill, MRSA
Description: The time-kill kinetic approach was used to investigate the anti-MRSA activity of compounds 50, 62 and 64. The experimental results were presented in graphic form in Figure 2. Compared with growth control, compounds 50 and 62 inhibited the reproduction of bacteria to a certain extent.
The time-kill curve determination is an in vitro bactericidal kinetics model, which is used to study the sustained killing effect of bacteria within 24 h at a certain drug concentration. The bactericidal activity of compounds 50, 62 and 64 was determined by the time-kill curve as reported in our previous work[18]^,[22]. MRSA grown in MH broth were diluted to approximately 1 × 10^6 CFU/mL. […] 100 µL of samples were collected from the subculture inoculums before culture (0 h) and 3 h, 6 h, 9 h and 24 h after culture, and serially diluted 10-flod with sterile saline. The dilution of each gradient (25 µL) was uniformly suspended on the MH agar plates. The total bacterial CFU/mL on the plates were counted to calculate the bacterial colonies after up to 20 h of incubation at 37 °C. The results are represented by Mean ± SD, with the log10 CFU/mL of bacteria counts as the ordinate and time as the abscissa, the time-kill curves of different concentrations of compounds against MRSA were established respectively.

[6] = biological target: 50S ribosome; assay: SPR binding studies; set-up: species or system S. aureus; conditions: for Ka (association rate constant) / Kd (dissociation rate constant): PBST pH 7.4, compound immobilised, 50S ribosome 200-3200 nM
Description: In order to gain some insight into the binding mode of the potent inhibitors, SPR experiments were performed. […] The response unit (RU) of surface resonance was compared to determine the different binding affinities between each compound and the 50S ribosome. The association rate constants (Ka) and dissociation rate constant (Kd) represent the rate of association and dissociation in the binding reaction, respectively. The equilibrium dissociation constant (KD) indicated the degree of dissociation of compounds and the 50S ribosome in the equilibrium state. Their binding curves during the experiment were shown in Figure 3, as well as the concentration gradient curves were shown in Figure SI 27–34.
SPR biosensing experiments were performed at 4 °C using the bScreen LB 991 Label-free Microarray System (Berthold Technologies, Germany) and the photo-cross-linker sensor chip. The BIODOT™ AD-1520 Array Printer (BIODOT Inc., USA) was used for printing samples and control on the chip surface. A UV Spectroirradiator 1020 (Amersham Life Science, USA) was used for the photo-cross-linking reaction quickly after the array print.
As described in the reference[32–34] with minor modifications, the ribosome of S. aureus were extracted and purified to obtain 50S ribosome. MRSA (ATCC 43300) was incubated overnight at 37 °C. The bacteria solution was inoculated into a new culture solution, and cells were collected at an OD600 = 1.5. The bacterial culture was centrifuged 3 times at 3,500 rpm using a TX-400 rotor at 4 °C for 30 min, and then the supernatant was discarded. Cells were washed twice with 10 mM Tris-HCl (pH = 7.5), and suspend the precipitate with buffer A (20 mM HEPES-HCl pH = 7.5, 100 mM NH4Cl, 21 mM Mg(OAc)2, 1 mM EDTA, 1 mM DTT). Cells were lysed by repeated (>3×) snap-freezing and thawing, then ultrasonic disintegration was performed. To remove cell debris, the crushed product was centrifuged at 20,000 rpm for 90 min at 4 °C.The lysate layered on 15 ml of a sucrose cushion (10 mM HEPES-HCl pH = 7.5, 500 mM KCl, 25 mM Mg(OAc)2, 1.1 M sucrose, 0.5 mM EDTA, 1 mM DTT) and centrifuged in the ultracentrifuge(Optima^TM TL 100) at 45,000 rpm using a type70Ti rotor at 4 °C for 15 h to obtain ribosomal particles. Pellet was resuspended in 3 ml of buffer E (10 mM HEPES-HCl pH = 7.5, 100 mM KCl, 1 mM Mg(OAc)2, 0.5 mM EDTA, 1 mM DTT), then layered on 9 ml of 7–30% sucrose gradient and ultracentrifuged at 17,100 rpm using a typeSW40Ti rotor at 4 °C for 15 h. The gradient was analysed on the AKTA explorer system. The fractions corresponding to 50S ribosome were collected and PEG 20000 was added to a final concentration of 4.5% w/v. Ribosomes were pelleted by centrifugation at 20,000 rpm for 12 min, the pellet was gently dissolved in 200 µL of storage buffer (10 mM HEPES-HCl pH = 7.5, 15 mM KCl, 60 mM NH4Cl, 10 mM Mg(OAc)2, 1 mM DTT) and then flash-frozen for storage at −80 °C.
Dilute these compounds to a concentration of 10 mM with DMSO as the stationary phase printing working solution. After that, the printing working solution was printed on the sensor chip by the array printer, and each sample was printed four times repeatedly. Four groups of positive control dots (12 rapamycin dots, 3 in each corner) were printed on the four corners of the sensor chip respectively. The sample dots were dried in vacuum, and the sensor chip was quickly transferred to the UV spectroirradiator for a photo-cross-linking reaction. Subsequently, the sensor chip was washed with DMF, methanol, and water for 15 min in turn, followed by blowing dry under nitrogen, and then assembled with Flowcell Cover.
The binding studies were performed with PBST running buffer (pH = 7.4, 0.1% Tween 20) at a constant flow rate of 0.5 µL/s in instrument. 50S Ribosome was diluted separately with PBST running buffer to 200 nM, 400 nM, 800 nM, 1600 nM and 3200 nM and injected consecutively for 600 s at associating stage, followed by running buffer for 360 s at each dissociating stage. […]

[7] = Staphylococcus aureus, read-out: MIC
[8] = 4 °C, PBST pH 7.4, KD = Kd/Ka, read-out: KD (equilibrium dissociation constant)

MIC [1, 7]	MIC [2]	MIC [3]	MIC [4]	Kd [6, 8]	Ka (association rate constant) ([6]; 4 °C)	Kd (dissociation rate constant) ([6]; 4 °C)	Kd ([6]; read-out: interaction intensity level for 50S ribosome (KD class))	MIC [1]	Compound	MBC ([1]; Staphylococcus aureus)	MBC [2]	MBC [3]	MBC [4]	time-kill kinetics result [5]	concentration giving a bactericidal effect [5]	MRSA killing, log10 CFU/mL reduction ([5]; 16 × MIC, after 3 h incubation)	bacterial growth inhibition, log10 CFU/mL reduction ([5]; 16 × MIC, at 24 h)
1 µg/mL (≈ 1.62 µM)	4 µg/mL (≈ 6.47 µM)	2 µg/mL (≈ 3.24 µM)	1 µg/mL (≈ 1.62 µM)	0.0232 µM	170 M⁻¹ s⁻¹	3.93e-06 s⁻¹			C=C[C@]1(C)C[C@@H](OC(=O)Cn2cc(CN3CCN(c4ccccc4C)CC3)nn2)[C@]2(C)[C@H](C)CC[C@]3(CCC(=O)[C@H]32)[C@@H](C)[C@@H]1O [Compound 50, 22-(2-(4-(4-(o-Tolyl)-piperazin-1-yl)-methyl)-1H-1,2,3-triazol-1-yl)-22-deoxy pleuromutilin]	2 µg/mL (≈ 3.24 µM)	4 µg/mL (≈ 6.47 µM)	4 µg/mL (≈ 6.47 µM)	2 µg/mL (≈ 3.24 µM)	relatively anti-MRSA bacteriostatic kinetics	higher than 4 × MIC		
1 µg/mL (≈ 1.54 µM)	2 µg/mL (≈ 3.08 µM)	1 µg/mL (≈ 1.54 µM)	2 µg/mL (≈ 3.08 µM)	17.7 µM	734 M⁻¹ s⁻¹	0.013 s⁻¹	10 to 1000 µM		C=C[C@]1(C)C[C@@H](OC(=O)Cn2cc(CN3CCN(c4ccccc4[N+](=O)[O-])CC3)nn2)[C@]2(C)[C@H](C)CC[C@]3(CCC(=O)[C@H]32)[C@@H](C)[C@@H]1O [Compound 62, 22-(2-(4-(4-(2-Nitrophenyl)-piperazin-1-yl)-methyl)-1H-1,2,3-triazol-1-yl)-22-deoxy pleuromutilin]	2 µg/mL (≈ 3.08 µM)	4 µg/mL (≈ 6.17 µM)	4 µg/mL (≈ 6.17 µM)	2 µg/mL (≈ 3.08 µM)	relatively anti-MRSA bacteriostatic kinetics	higher than 4 × MIC		
0.5 µg/mL (≈ 0.771 µM)	2 µg/mL (≈ 3.08 µM)	1 µg/mL (≈ 1.54 µM)	1 µg/mL (≈ 1.54 µM)	0.636 µM	1200 M⁻¹ s⁻¹	0.000764 s⁻¹		0.5 µg/mL (≈ 0.771 µM)	C=C[C@]1(C)C[C@@H](OC(=O)Cn2cc(CN3CCN(c4ccc([N+](=O)[O-])cc4)CC3)nn2)[C@]2(C)[C@H](C)CC[C@]3(CCC(=O)[C@H]32)[C@@H](C)[C@@H]1O [Compound 64, 22-(2-(4-(4-(4-Nitrophenyl)-piperazin-1-yl)-methyl)-1H-1,2,3-triazol-1-yl)-22-deoxy pleuromutilin]	1 µg/mL (≈ 1.54 µM)	4 µg/mL (≈ 6.17 µM)	4 µg/mL (≈ 6.17 µM)	2 µg/mL (≈ 3.08 µM)		higher than 4 × MIC	2.21 log10 CFU/mL	4.49 log10 CFU/mL
